Calls of active or inactive are those of the source. The calls are words filed in the database; no cut-off is given here.
Key:
[1] = target: Nucleosome-remodeling factor subunit BPTF (Homo sapiens, UniProt Q12830); assay: FALZ DiscoverX BROMOscan
[2] = target: Bromodomain and PHD finger-containing protein 3 (Homo sapiens, UniProt Q9ULD4); assay: BRPF3 DiscoverX BROMOscan
[3] = target: Histamine H4 receptor (Homo sapiens) (UniProt Q9H3N8); details: Compound concentration 10.0 uM
[4] = target: T1, Bromodomain testis-specific protein (Homo sapiens, UniProt Q58F21); assay: BRDT BD2 Bromoscan (DiscoverX)
[5] = target: Beta-3 adrenergic receptor (Homo sapiens) (UniProt P13945); details: Compound concentration 10.0 uM
[6] = target: 5-hydroxytryptamine receptor 1A (Homo sapiens) (UniProt P08908); details: Compound concentration 10.0 uM
[7] = target: Sodium-dependent noradrenaline transporter (Homo sapiens) (UniProt P23975); details: Compound concentration 10.0 uM
[8] = target: Bromodomain adjacent to zinc finger domain protein 2A (Homo sapiens, UniProt Q9UIF9); assay: BAZ2A DiscoverX BROMOscan
[9] = target: Bromodomain-containing protein 1 (Homo sapiens, UniProt O95696); assay: BRD1 DiscoverX BROMOscan
[10] = target: T2, Bromodomain-containing protein 2 (Homo sapiens, UniProt P25440); assay: BET mutant TR-FRET assay (BRD2 BD2)
[11] = target: Transcription intermediary factor 1-alpha (Homo sapiens, UniProt O15164); assay: TRIM24(BROMO.) DiscoverX BROMOscan
[12] = target: T2, Bromodomain-containing protein 2; assay: TR-FRET assay (BRD2 BD1)
[13] = target: Alpha-1D adrenergic receptor (Homo sapiens) (UniProt P25100); details: Compound concentration 10.0 uM
[14] = target: Alpha-2B adrenergic receptor (Homo sapiens) (UniProt P18089); details: Compound concentration 10.0 uM
[15] = target: T1, Bromodomain testis-specific protein; assay: TR-FRET assay (BRDT BD1)
Mu-type opioid receptor = Mu-type opioid receptor (Homo sapiens, UniProt P35372); details: Compound concentration 10.0 uM
[16] = target: Sigma intracellular receptor 2 (Homo sapiens) (UniProt Q5BJF2); details: Compound concentration 10.0 uM
[17] = target: D(3) dopamine receptor (Homo sapiens) (UniProt P35462); details: Compound concentration 10.0 uM
[18] = target: T3, Bromodomain-containing protein 8 (Homo sapiens, UniProt Q9H0E9); assay: BRD8(2) DiscoverX BROMOscan
[19] = target: GABA-A receptor; anion channel; assay: Cross screening panel; type: protein-complex assay
[20] = target: Muscarinic acetylcholine receptor M3 (Homo sapiens) (UniProt P20309); details: Compound concentration 10.0 uM
[21] = target: T3, Bromodomain-containing protein 8; assay: BRD8(1) DiscoverX BROMOscan
[22] = target: Bromodomain-containing protein 3 (Homo sapiens, UniProt Q15059); assay: TR-FRET assay (BRD3 BD1)
Protein polybromo-1 = Protein polybromo-1 (Homo sapiens, UniProt Q86U86); assay: PBRM1(2) DiscoverX BROMOscan
Sequence of Protein polybromo-1 (Q86U86 whole entry): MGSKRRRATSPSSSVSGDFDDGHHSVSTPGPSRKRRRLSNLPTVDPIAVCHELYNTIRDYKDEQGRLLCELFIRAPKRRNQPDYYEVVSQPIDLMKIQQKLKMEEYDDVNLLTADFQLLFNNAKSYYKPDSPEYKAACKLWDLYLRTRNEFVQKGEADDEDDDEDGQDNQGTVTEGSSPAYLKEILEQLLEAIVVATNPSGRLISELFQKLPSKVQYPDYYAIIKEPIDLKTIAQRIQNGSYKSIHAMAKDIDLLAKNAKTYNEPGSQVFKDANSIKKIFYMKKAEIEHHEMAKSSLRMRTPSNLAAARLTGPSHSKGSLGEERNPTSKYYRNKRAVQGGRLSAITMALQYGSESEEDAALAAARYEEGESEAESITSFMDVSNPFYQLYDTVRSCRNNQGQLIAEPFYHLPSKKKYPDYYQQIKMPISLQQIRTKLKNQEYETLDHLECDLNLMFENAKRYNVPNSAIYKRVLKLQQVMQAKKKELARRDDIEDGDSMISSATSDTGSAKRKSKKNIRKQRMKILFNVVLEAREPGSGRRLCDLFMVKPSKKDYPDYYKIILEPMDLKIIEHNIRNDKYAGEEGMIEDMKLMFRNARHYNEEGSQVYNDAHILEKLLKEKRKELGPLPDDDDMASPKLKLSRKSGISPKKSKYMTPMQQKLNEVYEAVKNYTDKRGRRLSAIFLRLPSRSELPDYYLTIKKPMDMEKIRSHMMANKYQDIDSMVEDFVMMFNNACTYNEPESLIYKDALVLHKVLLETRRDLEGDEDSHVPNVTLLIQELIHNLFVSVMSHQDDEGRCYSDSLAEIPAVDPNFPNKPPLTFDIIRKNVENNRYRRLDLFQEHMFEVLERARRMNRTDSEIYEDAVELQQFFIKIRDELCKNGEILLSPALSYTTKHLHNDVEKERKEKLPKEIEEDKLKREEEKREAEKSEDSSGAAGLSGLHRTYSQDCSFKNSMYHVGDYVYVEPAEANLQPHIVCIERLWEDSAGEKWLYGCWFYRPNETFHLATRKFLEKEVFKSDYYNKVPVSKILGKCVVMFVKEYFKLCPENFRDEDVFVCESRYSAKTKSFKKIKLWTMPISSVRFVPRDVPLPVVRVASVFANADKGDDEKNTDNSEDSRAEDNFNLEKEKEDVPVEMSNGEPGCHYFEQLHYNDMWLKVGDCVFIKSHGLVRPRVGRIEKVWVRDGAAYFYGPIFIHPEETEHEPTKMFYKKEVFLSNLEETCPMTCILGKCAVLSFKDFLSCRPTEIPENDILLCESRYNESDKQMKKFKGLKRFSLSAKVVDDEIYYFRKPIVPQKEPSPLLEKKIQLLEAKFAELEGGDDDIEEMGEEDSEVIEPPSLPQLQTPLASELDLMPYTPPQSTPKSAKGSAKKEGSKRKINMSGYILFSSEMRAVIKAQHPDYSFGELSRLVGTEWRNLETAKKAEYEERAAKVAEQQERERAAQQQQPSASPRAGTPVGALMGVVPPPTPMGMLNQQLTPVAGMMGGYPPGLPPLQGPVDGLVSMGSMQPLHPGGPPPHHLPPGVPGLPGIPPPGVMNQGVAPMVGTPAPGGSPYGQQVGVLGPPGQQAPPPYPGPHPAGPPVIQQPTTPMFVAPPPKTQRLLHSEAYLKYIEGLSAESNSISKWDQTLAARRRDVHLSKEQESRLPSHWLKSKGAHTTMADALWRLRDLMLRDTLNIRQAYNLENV

T3 sequence (Q9H0E9 whole entry): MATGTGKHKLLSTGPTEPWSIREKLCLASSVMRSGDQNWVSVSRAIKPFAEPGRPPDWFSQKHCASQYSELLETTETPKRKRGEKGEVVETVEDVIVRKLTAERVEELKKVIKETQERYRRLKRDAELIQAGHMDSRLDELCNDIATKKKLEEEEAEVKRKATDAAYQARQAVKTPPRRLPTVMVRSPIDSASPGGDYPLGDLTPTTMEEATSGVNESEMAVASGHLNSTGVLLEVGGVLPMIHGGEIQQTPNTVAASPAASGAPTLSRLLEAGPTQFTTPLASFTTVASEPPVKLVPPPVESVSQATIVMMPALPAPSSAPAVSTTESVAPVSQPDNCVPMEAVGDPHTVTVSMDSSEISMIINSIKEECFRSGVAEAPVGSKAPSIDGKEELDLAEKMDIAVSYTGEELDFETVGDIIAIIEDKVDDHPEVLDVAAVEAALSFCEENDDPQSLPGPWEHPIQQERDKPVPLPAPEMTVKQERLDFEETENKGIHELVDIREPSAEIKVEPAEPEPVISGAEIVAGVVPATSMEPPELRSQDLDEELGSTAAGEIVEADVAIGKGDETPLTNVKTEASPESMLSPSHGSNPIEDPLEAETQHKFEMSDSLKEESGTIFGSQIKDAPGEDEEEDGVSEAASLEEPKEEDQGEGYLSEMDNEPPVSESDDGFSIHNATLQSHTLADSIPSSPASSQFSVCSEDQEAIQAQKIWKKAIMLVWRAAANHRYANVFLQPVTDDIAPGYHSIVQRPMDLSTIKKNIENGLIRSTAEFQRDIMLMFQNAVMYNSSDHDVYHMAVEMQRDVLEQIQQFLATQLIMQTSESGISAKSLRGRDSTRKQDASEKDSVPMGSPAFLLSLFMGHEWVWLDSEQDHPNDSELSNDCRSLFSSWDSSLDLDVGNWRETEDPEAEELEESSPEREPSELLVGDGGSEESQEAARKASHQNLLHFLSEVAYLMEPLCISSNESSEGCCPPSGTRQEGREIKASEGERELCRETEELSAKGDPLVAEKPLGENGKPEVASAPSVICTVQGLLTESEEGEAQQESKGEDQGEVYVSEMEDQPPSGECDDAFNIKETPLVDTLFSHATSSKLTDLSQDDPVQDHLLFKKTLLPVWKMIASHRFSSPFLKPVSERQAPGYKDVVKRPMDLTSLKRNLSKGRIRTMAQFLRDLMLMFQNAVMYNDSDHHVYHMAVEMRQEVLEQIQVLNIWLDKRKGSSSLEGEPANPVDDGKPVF
Sequence of Beta-3 adrenergic receptor (Homo sapiens) (P13945 whole entry, looked up): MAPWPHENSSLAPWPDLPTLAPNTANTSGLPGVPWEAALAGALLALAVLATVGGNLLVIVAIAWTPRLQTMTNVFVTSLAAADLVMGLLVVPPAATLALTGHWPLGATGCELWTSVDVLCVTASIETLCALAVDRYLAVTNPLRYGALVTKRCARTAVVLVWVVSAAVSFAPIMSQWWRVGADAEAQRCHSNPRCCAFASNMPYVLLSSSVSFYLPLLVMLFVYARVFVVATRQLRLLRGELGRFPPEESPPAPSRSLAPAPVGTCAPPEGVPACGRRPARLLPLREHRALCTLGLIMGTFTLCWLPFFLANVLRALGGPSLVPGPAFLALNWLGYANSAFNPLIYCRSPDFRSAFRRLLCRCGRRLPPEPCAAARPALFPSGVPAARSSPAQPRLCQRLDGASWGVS
Sequence of Mu-type opioid receptor (P35372 whole entry): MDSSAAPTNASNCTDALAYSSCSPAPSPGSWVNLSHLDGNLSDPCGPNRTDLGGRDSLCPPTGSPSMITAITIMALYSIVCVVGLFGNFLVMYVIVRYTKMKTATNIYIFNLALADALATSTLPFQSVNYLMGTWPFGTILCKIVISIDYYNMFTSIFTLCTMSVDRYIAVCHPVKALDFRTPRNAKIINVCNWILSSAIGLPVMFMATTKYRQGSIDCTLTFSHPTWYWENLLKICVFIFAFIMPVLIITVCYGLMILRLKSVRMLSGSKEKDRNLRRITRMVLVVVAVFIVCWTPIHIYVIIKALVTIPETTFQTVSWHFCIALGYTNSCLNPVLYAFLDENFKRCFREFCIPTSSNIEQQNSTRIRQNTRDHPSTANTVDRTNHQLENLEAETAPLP
Sequence of Bromodomain-containing protein 3 (Q15059 whole entry): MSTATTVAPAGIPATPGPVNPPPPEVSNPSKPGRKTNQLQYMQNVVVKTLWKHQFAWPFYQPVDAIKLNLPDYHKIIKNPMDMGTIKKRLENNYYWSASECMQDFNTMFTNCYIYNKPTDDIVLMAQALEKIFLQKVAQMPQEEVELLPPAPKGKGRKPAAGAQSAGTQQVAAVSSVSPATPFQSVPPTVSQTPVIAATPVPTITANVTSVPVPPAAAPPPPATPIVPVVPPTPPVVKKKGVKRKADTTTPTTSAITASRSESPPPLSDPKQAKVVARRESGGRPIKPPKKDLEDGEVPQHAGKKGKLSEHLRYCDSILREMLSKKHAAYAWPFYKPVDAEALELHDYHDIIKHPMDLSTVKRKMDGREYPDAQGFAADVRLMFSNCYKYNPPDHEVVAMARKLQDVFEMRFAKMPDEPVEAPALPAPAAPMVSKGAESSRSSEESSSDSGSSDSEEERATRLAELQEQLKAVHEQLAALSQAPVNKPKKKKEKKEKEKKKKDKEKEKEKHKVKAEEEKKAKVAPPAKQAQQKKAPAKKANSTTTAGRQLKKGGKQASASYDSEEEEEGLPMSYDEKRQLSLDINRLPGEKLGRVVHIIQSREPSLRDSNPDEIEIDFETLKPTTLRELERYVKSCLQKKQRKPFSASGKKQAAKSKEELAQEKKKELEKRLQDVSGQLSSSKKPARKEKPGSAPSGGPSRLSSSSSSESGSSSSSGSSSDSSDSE
Sequence of 5-hydroxytryptamine receptor 1A (Homo sapiens) (P08908 whole entry): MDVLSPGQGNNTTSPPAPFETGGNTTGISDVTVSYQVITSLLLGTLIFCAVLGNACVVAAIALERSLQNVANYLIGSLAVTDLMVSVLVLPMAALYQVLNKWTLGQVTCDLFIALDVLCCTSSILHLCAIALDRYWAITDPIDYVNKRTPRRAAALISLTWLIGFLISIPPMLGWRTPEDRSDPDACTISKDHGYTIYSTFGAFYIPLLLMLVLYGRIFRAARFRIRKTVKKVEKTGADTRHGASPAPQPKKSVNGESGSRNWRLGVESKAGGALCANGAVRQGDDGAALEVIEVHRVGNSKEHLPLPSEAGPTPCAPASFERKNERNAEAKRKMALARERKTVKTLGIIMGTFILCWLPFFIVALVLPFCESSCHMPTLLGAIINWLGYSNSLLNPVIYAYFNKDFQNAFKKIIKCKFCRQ
Sequence of Sigma intracellular receptor 2 (Homo sapiens) (Q5BJF2 whole entry): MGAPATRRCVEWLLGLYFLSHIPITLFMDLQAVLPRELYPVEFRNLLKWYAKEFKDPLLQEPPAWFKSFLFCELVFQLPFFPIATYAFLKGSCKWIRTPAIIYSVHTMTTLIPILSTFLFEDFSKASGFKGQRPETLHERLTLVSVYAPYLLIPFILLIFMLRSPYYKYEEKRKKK

SMILES: CC(=O)Nc1c(F)cc(C(=O)N[C@H]2CC[C@H](O)CC2)cc1O[C@@H](C)c1ccccc1 [GSK046]
- Kd [1]: 30 µM
- Kd [2]: 30 µM
- inhibition [3]: 20.1%
- Kd [4]: 0.015 µM (active)
- inhibition [5]: 17.5%
- inhibition [6]: -8.96%
- inhibition [7]: -0.92%
- Kd [8]: 30 µM
- Kd [9]: 30 µM
- pIC50 [10]: 6.6
- Kd [11]: 30 µM
- IC50 [12]: 11 µM (not active)
- inhibition [13]: -6.01%
- inhibition [14]: 3.38%
- IC50 [15]: > 50.1 µM (not active)
- inhibition (Mu-type opioid receptor): 20.4%
- inhibition [16]: -0.94%
- inhibition [17]: 39.1%
- Kd [18]: 30 µM
- pEC50 [19]: < 4
- inhibition [20]: 16%
- Kd [21]: 30 µM
- IC50 [22]: 36.3 µM (not active)
- Kd (Protein polybromo-1): 30 µM
